According to publication PMC8698672, “Selective Anticancer and Antimicrobial Metallodrugs Based on Gold(III) Dithiocarbamate Complexes” (Biomedicines, 2021):

Legend:
[1] = Stability in phosphate buffer (pH 7.4, 37 °C) followed by UV–Vis over 24 h; format: physicochemical; conditions: 50 µM
Protocol: (§1) The stability of the gold complexes was analyzed by absorption UV spectroscopy. UV–Vis absorption spectra of the complexes were recorded on a Thermo Scientific spectrophotometer (Madrid, Spain). Solutions of C1–6 (5 × 10^−5 M) in 10 mM phosphate buffer (pH = 7.4, 137 mM NaCl) were prepared from 20 mM DMSO solutions of the complexes and thereafter monitored by measuring the electronic spectra over 24 h at 37 °C. To evaluate the stability in the presence of biological reductants, all complexes were pre-solved in a minimum amount of DMSO and then diluted in 10 mM phosphate buffer (pH 7.4, 20 mM NaCl) to a final concentration of 10 µM [41]. All experiments were measure on a quartz microplate. Studies with L-glutathion reduced (GSH) and ascorbic acid (AsA) were conducted by increasing the final concentration of 0 to 50 µM (GSH) and from 0–20 µM for AsA.
Due to the aqueous nature of the bloodstream, studies to understand the behavior of our complexes in such an environment were considered necessary in order to determine the stability in simulated physiological conditions, pH = 7.4 and 37 °C. […] Besides, in the cases of complexes C1–4, a low-intensity broad band was detected (322 nm) (Figure 2 and Figure S3). […]
This is usually associated with the formation of Au(III)-OH bonds, increasing the water solubility and, consequently, the intensity of absorbance. […]

Caco-2 cells = assay: Cell cycle analysis, PI staining flow cytometry; format: cell-based, human; conditions: 20 μM, 24 h
Protocol: After incubation with the complexes, the cells were collected, washed twice with PBS, fixed in 70% ice-cold ethanol, and stored at 4 °C for 24 h. After centrifugation, cells were resuspended in PBS containing PI (50 μg/mL) and RNase A (100 μg/mL). After incubation for 30 min at RT in the dark, PI-stained cells were analyzed for DNA content in a Gallios Flow Cytometer (Beckman Coulter). […] Cell cycle distribution was determined on a linear scale. The percentage of cells in cycle phases was determined using the Kaluza Analysis Software (Beckman Coulter).
To stop the uncontrolled replication of tumor cells is still one of the main aims in the chemotherapy field; thus, arresting the tumor cell cycle in as many stages as possible is considered crucial. […] As is known, the geometry and structure of the complex have a great impact on the action mechanism of the drug, so there are examples of gold(III) complexes that alter the cell cycle at the G0/G1 phase, but also others at G2/M phase.
Figure 5 Cell population (%) in each stage of the cell cycle obtained by flow cytometry after 24 h of incubation of the cells with DMSO (control) and gold(III) complexes 1, 5, and 6 (20 μM).

Caco-2/TC7 cells = assay: Oxidative stress damage, protein carbonyl levels (DNPH); format: cell-based, human; conditions: 20 μM, 24 h
Protocol: Cell homogenates needed for this assay were prepared according to a previously described method. Protein oxidation was analyzed by carbonyl-level measurement as previously described. Cell homogenates were incubated with the classical carbonyl reagent 2,4-dinitrophenylhydrazine (DNPH), and protein carbonylation was measured spectrophotometrically at 375 nm. The results were calculated in nmol carbonyl groups mg^−1 protein.
According to the literature, gold complexes act as anticancer agents by the disruption of redox homeostasis. As a result, the concentration of ROS species rises and consequently, main biomolecules, such as lipids, proteins, or even DNA, can be oxidized. However, tumor cells present an overproduction of ROS species due to their high metabolism. The most common anticancer strategy is promoting a higher oxidative damage in biomolecules to trigger the apoptosis process. […] In this study, we evaluated the oxidation levels of the carbonyl groups present in proteins by the established method of 2,4-dinitrophenylhydrazine (DNPH).
Figure 6 Carbonyl levels (nmol mg^−1 protein) in Caco-2/TC7 cells treated with vehicle DMSO (control) or gold(III) complexes (24 h, 20 μM). Values are expressed as mean values ± SEM (n ≥ 6 experiments). ** p < 0.01; *** p < 0.001 vs. control.

[2] = Stability in the presence of reduced L-glutathione (GSH), UV–Vis; format: physicochemical; conditions: GSH 0–50 µM, PBS, 37 °C, 24 h
Protocol: as §1
This is usually associated with the formation of Au(III)-OH bonds, increasing the water solubility and, consequently, the intensity of absorbance. […] We observed that our complexes were stable with the addition of GSH over 24 h, even in a high excess of GSH to Au(III) complexes (50 vs. 16 µM) (Figure S4), since no evidence of decomposition or new bands was detected. […]

Structure (SMILES)	Stability in PBS (UV–Vis spectra over time) [1]	effect on cell cycle (cells in G0/G1, S, G2/M phases) vs control (Caco-2 cells)	oxidized protein (carbonyl) levels vs control (Caco-2/TC7 cells)	Stability towards GSH (UV–Vis spectra) [2]
Cc1ccc(-c2ccccn2)[c]([Au+][S]C(=S)N(C)C)c1.F[P-](F)(F)(F)(F)F [Complex C1, [Au(tpy)(dmdtc)] PF6]	absence of new bands around 550 nm	did not have a significant impact	did not promote oxidative stress damage	
CN(C)C(=S)[S][Au+][c]1ccccc1-c1ccccn1.F[P-](F)(F)(F)(F)F [Complex C2, [Au(ppy)(dmdtc)]PF6]				slight changes in intensity
CCN(CC)C(=S)[S][Au+][c]1cc(C)ccc1-c1ccccn1.F[P-](F)(F)(F)(F)F [Complex C3, [Au(tpy)(dedtc)]PF6]				slight changes in intensity
Cc1ccc2[c](c1)[Au-]1([S]C(N(Cc3ccccc3)Cc3ccccc3)=[S+]1)[n+]1ccccc1-2.F[P-](F)(F)(F)(F)F (stereo not shown) [Complex C5, [Au(tpy)(dbdtc)]PF6]	slight increase in the intensity of 328 nm band	did not have a significant impact	did not promote oxidative stress damage	
F[P-](F)(F)(F)(F)F.S=C([S][Au+][c]1ccccc1-c1ccccn1)N(Cc1ccccc1)Cc1ccccc1 [Complex C6, [Au(ppy)(dbdtc)]PF6]		did not have a significant impact	did not promote oxidative stress damage	
